Values quoted from earlier work, collected in article PMC8875809, “Comparative venomic profiles of three spiders of the genus Phoneutria” (The Journal of Venomous Animals and Toxins Including …, 2022).
Entries after “also recorded” stand apart in the source; their conditions may differ.

Experiments:
sodium channels = conditions: ref [78]
Text: PnTx2-6 (MW 5288 Da) contains 48 amino acids, of which 10 are cysteine residues. […] Due to such effects on penile erection, PnTx2-6 has shown good perspectives for clinical application on erectile dysfunction treatment. […] Although we have not assayed Tx2-6 isoforms from P. eickstedtae (Pe-V) and P. pertyi (Pp- V), we believe that them has similar effects on sodium channels like PnTx2-6 isoform and similar results would be expected, because these toxins are homologous. The species P. eickstedtae and P. pertyi are rarer spiders. In addition, since Tx1 is the most abundant toxin, only this molecule was used for electrophysiology assays. We believe that our data, as they are, already bring the news to arouse ...

[1] = tested on: nitric oxide (NO)/cyclic GMP pathway; conditions: ref [24],[35],[36]
Text: PnTx2-6 (MW 5288 Da) contains 48 amino acids, of which 10 are cysteine residues. […] Due to such effects on penile erection, PnTx2-6 has shown good perspectives for clinical application on erectile dysfunction treatment. PnTx2-6 modulates the nitric oxide (NO)/cyclic GMP pathwa ...

penile erection = tested on: penile erection
Text: PhTx2 toxins inhibit sodium channel inactivation. These toxins are the main responsible for the strongest neurotoxic effects of venom. […] These toxins have been explored as models for the development of a potential drug for the treatment of erectile dysfunction. || PnTx2-6 (MW 5288 Da) contains 48 amino acids, of which 10 are cysteine residues. […] Due to such effects on penile erection, PnTx2-6 has shown good perspectives for clinical application on erectile dysfunction treatment. PnTx2-6 modulates the nitric oxide (NO)/cyclic GMP pathwa ...

For “PnTx2-6: contains 48 amino acids, of which 10 are cysteine residues; P. nigriventer toxin (P29425) (ATCAGQDQPCKETCDCCGERGECVCGGPCICRQGYFWIAWYKLANCKK; UniProt P29425 35-82, looked up)”, the “effect on sodium channel inactivation” value (sodium channels) is listed as “modifies the kinetics of sodium channel inactivation; also recorded: decreases sodium channel inactivation”, the “voltage dependence of activation / sodium influx” value (sodium channels) is listed as “shifting the voltage dependence of activation towards more hyperpolarized potentials, thus increasing sodium influx” and the “NO release in corpus cavernosum tissue” value [1] is listed as “increased release of NO in the corpus cavernosum tissue”. For the same substance, the priapism (penile erection; ref [21],[24]) was “found to induce priapism” and the “penile erection in envenomation” value (penile erection; ref [29]) was “responsible for the penile erection”.
